Measured values: patent US11446269B2, “Methods of reducing or preventing oxidation of small dense LDL or membrane polyunsaturated fatty acids” (Amarin Pharmaceuticals Ireland Limited, priority 2014, dated 2022)

Experiments:
human sdLDL [1] = experiment: Copper-induced sdLDL oxidation, TBARS (Example 7); assay type: biochemical; details: 1 hr; for effect on sdLDL oxidation: 10 μM, vs vehicle-treated controls
Protocol: (§1) An experiment to study the antioxidant effect of EPA in LDL and small dense […] performed. […] Fenofibrate, gemfibrozil, and niacin were purchased from Sigma-Aldrich. […] Vitamin E was also incubated with sample aliquots as a positive control.

unfractionated LDL [2] = experiment: Copper-induced oxidation of unfractionated LDL, TBARS (Example 7); assay type: biochemical, human; details: 10 μM, 1 hr, vs vehicle-treated controls
Protocol: as §1

[3] = X-ray diffraction of cholesterol domains in POPC/cholesterol model membranes, C/P 1.5:1 (Example 9); details: drug-to-phospholipid mole ratio 1:30, C/P 1.5:1
Protocol: Multilamellar vesicles (MLVs) were prepared as binary mixtures that include palmitoyloleoylphosphatidylcholine (POPC) (1.0 mg total phospholipid per sample) and cholesterol at an elevated cholesterol-to-phospholipid (C/P) mole ratio of 1.5:1. […] Samples were shell-dried under nitrogen gas and placed under vacuum for 3 hours to remove residual solvent at room temperature. After desiccation, each sample was resuspended in saline buffer (0.5 mM HEPES, 154 mM NaCl, pH 7.3) to yield a final phospholipid concentration of 2.5 mg/mL. Lipid suspensions were then vortexed for 3 minutes at ambient temperature to form MLVs.
Briefly, a 100 μL aliquot of each MLV preparation (containing 250 μg MLV) was transferred to a Lucite® sedimentation cell fitted with an aluminum foil substrate designed to collect MLVs into a single membrane pellet upon centrifugation. Samples were then loaded into a Sorvall AH-629 swinging bucket rotor (DuPont Corp., Wilmington, Del.) and centrifuged at 35,000 g, 5° C., for 90 minutes.
After centrifugal orientation, sample supernatants were aspirated and aluminum foil substrates, each supporting a single membrane pellet, were removed from the sedimentation cells. Sample pellets were dried for 5-10 minutes at ambient conditions, mounted onto curved glass supports, and placed in hermetically-sealed, brass or glass containers (for immediate analysis or temporary storage, respectively). All x-ray diffraction experiments were conducted at 20° C., 74% relative humidity. The latter was established by exposing membrane samples to saturated solutions of […] (K2C4H4O6.½H2O) for at least 1 hour prior to experimental analysis.
Oriented membrane samples were aligned at grazing incidence with respect to a collimated, mono-chromatic CuKα x-ray beam (Kα1 and Kα2 unresolved; λ=1.54 Å) produced by a Rigaku Rotaflex RU-200, high-brilliance microfocus generator (Rigaku-MSC, The Woodlands, Tex.) as previously described (Mason et al., Biophys. J., vol. 55(4), pages 769-778 (1989)). The samples were initially subjected to x-ray diffraction analysis at least 12 hours after formation of the membrane pellets and retested for up to several days. Analytical x-rays were generated by electron bombardment of a rotating copper anode and are filtered through a thin nickel foil to provide monochromatic radiation (λ=1.54 Å). Collimation of the x-ray beam was achieved using a single Franks mirror. […]
The d-space for any given membrane multi bilayer is a measurement of the unit cell periodicity of the membrane lipid bilayer (e.g., the distance from the center of one lipid bilayer to the next including surface hydration), and is calculated from Bragg's Law, hλ=2d sin θ, where h is the diffraction order, λ is the wavelength of the x-ray radiation (1.54 Å), d is the membrane lipid bilayer unit cell periodicity, and θ is the Bragg angle equal to one-half the angle between the incident beam and scattered beam.
The presence of cholesterol domains in a given membrane sample results in the production of distinct Bragg (diffraction) peaks having singular periodicity values of 34 and 17 Å (typically referred to as first- and second-order cholesterol domain peaks). Under the specific temperature and relative humidity conditions established for these experiments, the second-order, 17 Å cholesterol domain peak was well-delineated from other, neighboring cholesterol and phospholipid diffraction peaks and was thus used to quantitate relative cholesterol domain peak intensity. […]

sdLDL = experiment: Glucose-induced sdLDL oxidation, MDA/TBARS (Example 10); assay type: biochemical, human; details: glucose 200 mg/dL; for effect on glucose-induced sdLDL oxidation: 10.0 μM
Protocol: Vitamin E (α-tocopherol) purchased from Sigma-Aldrich was prepared in ethanol at 1.0 mM (ε=3.06×10^4 M^−1 cm^−1 at 294 nm) prior to experimental use. Test compounds were further diluted in ethanol or aqueous buffer as needed. Phosphate Buffered Saline (PBS) purchased from Sigma-Aldrich was prepared in double distilled water at 10 mM (138 mM NaCl, 2.7 mM KCl, pH 7.4). […] Lipid oxidation was measured by the colorimetric detection of malondialdehyde (MDA), a marker of oxidative stress.

[4] = Glucose-induced membrane lipid peroxidation (LOOH, CHOD-iodide assay) in DLPC/cholesterol multilamellar vesicles (Example 4); assay type: biochemical; details: glucose 200 mg/dL
Protocol: Vitamin E (α-tocopherol) was also purchased from Sigma-Aldrich and prepared in ethanol at 1.0 mM (ε=3.06×10^4 M^−1 cm^−1 at 294 nm) just prior to experimental use. […] All test compounds were further diluted in ethanol or aqueous buffer as needed. Glucose was prepared in saline buffer (0.5 mM HEPES, 154 mM NaCl, pH 7.3) at 11.0 mM (200 mg/dL). CHOD-iodide color reagent (stock) was prepared, with slight modification, as described by from El-Saadani et al. (J. […] Samples were shell-dried under nitrogen gas and placed under vacuum for 1 h to remove residual solvent. […] Lipid suspensions were then vortexed for 3 min at ambient temperature to form MLVs. All MLV samples were subjected to time-dependent autoxidation by incubating at 37° C. in an uncovered, shaking water bath. This method allows lipid peroxidation to occur gradually without requiring the use of exogenous initiators. Small aliquots (5-100 μL) of each sample were removed, immediately following MLV preparation (0 hour) and after exposing samples to oxidative conditions for 72 or 96 hour, and combined with 1.0 mL of activated CHOD-iodide color reagent. Aliquot volume was reduced with each successive time point to ensure that spectrophotometric readings were within the optimal adsorption range. Test samples were covered and incubated in darkness at room temperature for at least 4 hr. Sample absorbances were then measured against a CHOD blank at 365 nm using a Beckman DU-640 spectrophotometer. The CHOD colorimetric assay is based on the oxidation of iodide (I^−) by lipid hydroperoxide (LOOH) to form triiodide (I3^−), the quantity of which is directly proportional to the amount of LOOH present in the lipid sample. The molar absorptivity (c) of I3^− is 2.46×10^4 M^−1 cm^−1 at 365 nm. […] The concentration of glucose selected was consistent with previous experimental studies of hyperglycemia under controlled laboratory conditions or observed in well-defined animal models of Type II diabetes following a glucose challenge. […] Values in FIG. 1 are mean±S.D. (N=6). EPA inhibited the peroxidative effects of glucose by 88% and 86% at 72 and 96 hours, respectively, which was highly significant (p<0.001) as compared to glucose treatment alone. […] Overall ANOVA—0 hour data: p=0.6655, F=0.4185; 72 hour data: p<0.0001, F=428.72; 96 hour data: p<0.0001, F=322.01.

[5] = Small angle x-ray diffraction of glucose- and peroxidation-induced cholesterol domain formation (Example 4); details: any time point (0, 72, 96 h), 1:30, glucose 200 mg/dL, vs control
Protocol: After centrifugal orientation, sample supernatants were aspirated and aluminum foil substrates, each supporting a single membrane pellet, were removed from the sedimentation cells. […] All x-ray diffraction experiments were conducted at 20° C., 74% relative humidity.
Oriented membrane samples were aligned at grazing incidence with respect to a collimated, mono-chromatic CuKα x-ray beam (Kα1 and Kα2 unresolved; λ=1.54 Å) produced by a Rigaku Rotaflex RU-200, high-brilliance microfocus generator (Rigaku-MSC, The Woodlands, Tex.) as previously described (Mason et al., Biophys. J., vol. 55(4), pages 769-778 (1989)).
Routines written in Origin 8.6 (OriginLab Corporation, Northampton, Mass.) were used to determine total peak area (associated with all diffraction peaks in a given pattern) against which the second-order cholesterol domain peak was normalized.

human sdLDL [6] = experiment: Copper-induced sdLDL oxidation, TBARS after 2 hr (Example 6); assay type: biochemical
Protocol: Venous blood was collected from healthy volunteers into vacutainer tubes containing sodium EDTA. Plasma was separated by centrifugation at 3000 g for 25 min at 4° C. and adjusted to a density of 1.020 g/mL with KBr. Triglyceride-rich lipoproteins (TGRL) and LDL fractions were then isolated by sequential centrifugation at 70,000 rpm at 4° C. in a Beckman LE-80 ultracentrifuge using a Beckman 50.4Ti rotor (Beckman Coulter, Inc., Fullerton, Calif.). The TGRL fraction (with a relative density of <1.020) was aspirated from the top of the centrifugate and discarded, leaving an LDL-enriched infranate (with a relative density of 1.020 to 1.063). The plasma LDL fraction was further fractionated into LDL1, LDL2, LDL3, and LDL4 (sdLDL) subfractions with relative densities of 1.020 to 1.035, 1.035 to 1.050, 1.050 to 1.063, and 1.063 to 1.075, respectively. The sdLDL subfraction was retained for additional experimentation. Plasma and lipoprotein fractions were maintained at 4° C. and protected from excessive exposure to light. Prior to oxidation experiments, EDTA was removed from the lipoprotein fraction using PD-10 desalting columns (GE Healthcare, Piscataway N.J.). After equilibration of the column with phosphate buffered saline (PBS), 2.5 mL of the lipoprotein fraction was loaded on the column and the flow-through discarded. The lipoprotein was then eluted with 3 mL of PBS. The LDL fractions were further diluted with PBS to obtain a 100 μg/mL apoB100 concentration.
LDL and sdLDL subfractions (0.6 mL each) were incubated with either 10 μL vehicle (ethanol) or 10 μL drug stock solution for 30 min to 1 hr at 37° C. Oxidation was initiated by the addition of 10 μM CuSO4. After 2 hr, 100 μL aliquots were removed from each subfraction and combined with 1.0 mL thiobarbituric acid (0.5%), 10 μL trichloroacetic acid (5%), 10 μL BHT (5 mg/mL in methanol), and 10 μL EDTA (5 mM). […]. Sample TBARS concentrations were determined spectrophotometrically by measuring sample absorbances against a standard curve derived from the hydrolysis of 1,1,3,3-tetramethoxypropane.

unfractionated LDL [7] = experiment: Copper-induced oxidation of unfractionated LDL, TBARS after 2 hr (Example 6); assay type: biochemical, human; details: 1.0 μM to 10.0 μM (data not shown)
Protocol: Venous blood was collected from healthy volunteers into vacutainer tubes containing sodium EDTA. […] Plasma and lipoprotein fractions were maintained at 4° C. and protected from excessive exposure to light. Prior to oxidation experiments, EDTA was removed from the lipoprotein fraction using PD-10 desalting columns (GE Healthcare, Piscataway N.J.). After equilibration of the column with phosphate buffered saline (PBS), 2.5 mL of the lipoprotein fraction was loaded on the column and the flow-through discarded. The lipoprotein was then eluted with 3 mL of PBS. The LDL fractions were further diluted with PBS to obtain a 100 μg/mL apoB100 concentration.

With `Cc1ccc(C)c(OCCCC(C)(C)C(=O)O)c1` [Gemfibrozil, gemfibrozil] the “effect on sdLDL oxidation” value (human sdLDL [1]) was “no significant effect”, the “effect on unfractionated LDL oxidation” value (unfractionated LDL [2]) was “no significant effect” and the “% change Vs control (cholesterol domain peak intensity)” value [3] was 10.9 ± 43.3%. For the same compound, the “effect on cholesterol domains” value [3] was “no significant changes in cholesterol domain size” and the “effect on glucose-induced sdLDL oxidation” value (sdLDL) was “did not inhibit”.

For `CC1(C)[C@@H](O[C@H]2O[C@H](C(=O)O)[C@@H](O)[C@H](O)[C@H]2O[C@@H]2O[C@H](C(=O)O)[C@@H](O)[C@H](O)[C@H]2O)CC[C@]2(C)[C@H]3C(=O)C=C4[C@@H]5C[C@@](C)(C(=O)O)CC[C@]5(C)CC[C@@]4(C)[C@]3(C)CC[C@@H]12` [Glyc, glycyrrhizin], the “reduction in cholesterol domain peaks vs vehicle” value [3] was 54.9%.

In the case of `Cc1c(C)c2c(c(C)c1O)CC[C@@](C)(CCC[C@H](C)CCC[C@H](C)CCCC(C)C)O2` [vitamin E, α-tocopherol], the “effect on LOOH formation / lipid peroxidation” value ([4]; 72- and 96-hour time points, 1:30 drug-to-phospholipid mole ratio) is reported as “no significant effect”, the “effect on cholesterol domain formation” value [5] is reported as “no significant effect” and the “effect on sdLDL oxidation” value (human sdLDL [6]; 1.0 μM to 10.0 μM) is reported as “did not inhibit sdLDL oxidation except at the highest concentration”. For the same compound, the “reduction of TBARS levels” value (human sdLDL [6]; 10.0 μM, 10 μM CuSO4, vs vehicle) was 26%, the “effect on LDL oxidation” value (unfractionated LDL [7]) was “did not inhibit LDL oxidation at any concentration” and the “effect on sdLDL oxidation” value (human sdLDL [1]) was “no significant effect”. For the same compound, the “effect on unfractionated LDL oxidation” value (unfractionated LDL [2]) was “no significant effect”, the “effect on glucose-induced sdLDL oxidation” value (sdLDL) was “failed to inhibit sdLDL oxidation” and the “increase in sdLDL oxidation” value (sdLDL; vs glucose-treated controls) was 63%.

In the case of `CC(C)c1c(C(=O)Nc2ccccc2O)c(-c2ccccc2)c(-c2ccc(F)cc2)n1CC[C@@H](O)C[C@@H](O)CC(=O)O` [ATM, Atorvastatin ortho- (o-) hydroxy (active) metabolite], the “antioxidant effect on glucose-induced LOOH formation” value ([4]; 1.0 μM, 96 hours) is reported as “potent antioxidant effects”.

In the case of `CC(C)c1c(C(=O)Nc2ccccc2)c(-c2ccccc2)c(-c2ccc(F)cc2)n1CC[C@@H](O)C[C@@H](O)CC(=O)O` [atorvastatin], the “effect on sdLDL oxidation” value (human sdLDL [1]) is reported as “did not have any significant antioxidant activity”, the “inhibition of sdLDL oxidation (TBARS formation)” value (human sdLDL [1]; each agent at 10 μM, vs vehicle) is reported as 0.1±7% and the “effect on unfractionated LDL oxidation” value (unfractionated LDL [2]) is reported as “did not have any significant antioxidant activity”.
